This is an account of results in patent US12630565B2, “DNA-dependent protein kinase inhibitor” (DIZAL (JIANGSU) PHARMACEUTICAL CO., LTD., priority 2019, dated 2026).

A short description of data set [1]: Metabolic stability assay (human microsomal Clint). Conditions: human, pooled human liver microsomes, pH 7.4, 1 μM compound, 1 mg/mL microsomes, 1 mM NADPH, 37° C. In kind it is in vitro ADME. An outline of the steps:
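Compound (1 μM) incubated at 37 °C with pooled human liver microsomes (1 mg/mL) and 1 mM NADPH in 100 mM phosphate, pH 7.4. Samples quenched in acetonitrile at 0–30 min and analysed by LC-MS/MS for parent loss. CLint reported in μl/min/mg.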
Background: Liver microsomes are vesicles of endoplasmic reticulum, rich in cytochrome P450 enzymes.

Data set [2] relates to MDR1, BCRP. Kind of data set: MDCKII-MDR1-BCRP efflux assay. Type of data set: in vitro ADME. Particulars: dog, pH 7.4, 5 μM compound, HBSS pH 7.4, read-out: MDCK-Mdr1-BCRP efflux ratio. An outline of the steps:
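Bidirectional (A-B, B-A) transport of 5 μM compound across MDCKII-MDR1-BCRP monolayers in HBSS, 25 mM HEPES pH 7.4, ~37° C. for 120 min, triplicate; donor and receiver concentrations measured, monolayer integrity checked with Lucifer yellow. Papp and efflux ratio calculated.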

Data set [3] has as its system Rat hepatocyte. Kind of data set: Metabolic stability assay (rat hepatocyte Clint). Type of data set: in vitro ADME. Particulars: 1 μM compound, cryopreserved hepatocytes 1 million cells per mL. In a few lines: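 Compound at 1 μM incubated with cryopreserved rat hepatocytes, 1 million cells/mL, sampled 0–120 min with acetonitrile quench and LC-MS/MS quantitation. CLint (μL/min/E6) derived from elimination rate constant and half-life of parent disappearance, scaled by cell concentration.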

For data set [4], the target named is Full length human DNAPK protein (Homo sapiens, UniProt P78527). Kind of data set: DNA-PK enzymatic assay (TR-FRET). Type of data set: biochemical. Conditions: 10 μM ATP, 1.6 μM peptide substrate.

SMILES strings stand for the structures. pIC50: −log10 of the molar value.

Turning to `Cc1cc2ncnn2cc1Nc1ncc2c(C)nn(C3CCC4(CC3)CC4)c2n1` [Example 37, 3-methyl-N-(7-methyl-[1,2,4]triazolo[1,5-a]pyridin-6-yl)-1-(spiro[2.5]octan-6-yl)-1H-pyrazolo[3,4-d]pyrimidin-6-amine], the intrinsic clearance (microsomal CLint) – broadly, the capacity of the preparation to metabolise the compound, expressed as a volume cleared per time – at 1 μM in data set [1] turned out to be 200 µL/min/mg. In addition, the efflux ratio at 120 min, 5 μM in data set [2] came out at 0.6. The “Rat hepatocyte CLint (μl/min/10^−6 cells)” value (“Rat hepatocyte CLint” below) in data set [3] turned out to be 71.1 μl/min/10^−6 cells. Also, in data set [4], the pIC50 (commonly −log10 of the IC50, conventionally taken in molar units) is 9.05.

In data set [1], `Cc1cc2ncnn2cc1Nc1ncc2c(C)nn(C3CC(C)OC(C)C3)c2n1` (single isomer, unassigned) [Example 86, 1-(2,6-dimethyltetrahydro-2H-pyran-4-yl)-3-methyl-N-(7-methyl-[1,2,4]triazolo[1,5-a]pyridin-6-yl)-1H-pyrazolo[3,4-d]pyrimidin-6-amine] returned a microsomal CLint at 1 μM above 300 µL/min/mg. Besides, the efflux ratio at 120 min, 5 μM in data set [2] stood at 1.4. Further, the “Rat hepatocyte CLint” value in data set [3] is on record as 33.4 μl/min/10^−6 cells. Moreover, the pIC50 in data set [4] is 8.62.

In data set [1], `Cc1cc2ncnn2cc1Nc1ncc2c(C)nn(C3CCN(C)CC3)c2n1` [Example 19, 3-methyl-N-(7-methyl-[1,2,4]triazolo[1,5-a]pyridin-6-yl)-1-(1-methylpiperidin-4-yl)-1H-pyrazolo[3,4-d]pyrimidin-6-amine] displayed a microsomal CLint at 1 μM of 4.3 µL/min/mg. For the same compound, the efflux ratio at 120 min, 5 μM in data set [2] was found to be 13.1. In data set [3], the “Rat hepatocyte CLint” value was 6.8 μl/min/10^−6 cells. In data set [4], this compound gave a negative logarithm of the IC50 (pIC50) of 7.59.

For `Cc1cc2ncnn2cc1Nc1ncc2c(C)nn(C3CCC(OC(F)F)CC3)c2n1` (stereo not shown) [Example 23, 1-(4-(difluoromethoxy)cyclohexyl)-3-methyl-N-(7-methyl-[1,2,4]triazolo[1,5-a]pyridin-6-yl)-1H-pyrazolo[3,4-d]pyrimidin-6-amine], in data set [1], the microsomal CLint at 1 μM came to 115 µL/min/mg. Moreover, the efflux ratio at 120 min, 5 μM in data set [2] is 0.9. Further, in data set [3], the “Rat hepatocyte CLint” value was 21.2 μl/min/10^−6 cells. The pIC50 in data set [4] is 9.15.

On to `Cc1cc2ncnn2cc1Nc1ncc2c(C)nn(CC(F)F)c2n1` [Example 57, 1-(2,2-difluoroethyl)-3-methyl-N-(7-methyl-[1,2,4]triazolo[1,5-a]pyridin-6-yl)-1H-pyrazolo[3,4-d]pyrimidin-6-amine], for which, in data set [1], the microsomal CLint at 1 μM came to 20.9 µL/min/mg. Also, in data set [2], the efflux ratio at 120 min, 5 μM came out at 1.6. Also, in data set [3], the “Rat hepatocyte CLint” value is on record as 4.2 μl/min/10^−6 cells. The pIC50 in data set [4] was 7.91.

`Cc1cc2ncnn2cc1Nc1ncc2c(C)cn(C3CCOCC3)c2n1` [Example 15, 7-methyl-N-(5-methyl-7-(tetrahydro-2H-pyran-4-yl)-7H-pyrrolo[2,3-d]pyrimidin-2-yl)-[1,2,4]triazolo[1,5-a]pyridin-6-amine] displayed a microsomal CLint at 1 μM in data set [1] of 69.6 µL/min/mg. Further, the efflux ratio at 120 min, 5 μM in data set [2] stood at 0.8. Further, the “Rat hepatocyte CLint” value in data set [3] came out at 14.6 μl/min/10^−6 cells. The compound also showed a pIC50 in data set [4] of 7.45.

The compound `Cc1cc2ncnn2cc1Nc1ncc2c(C)nn(C3CC4(C3)CC(F)(F)C4)c2n1` [Example 41, 1-(6,6-difluorospiro[3.3]heptan-2-yl)-3-methyl-N-(7-methyl-[1,2,4]triazolo[1,5-a]pyridin-6-yl)-1H-pyrazolo[3,4-d]pyrimidin-6-amine] returned a microsomal CLint at 1 μM in data set [1] of 216 µL/min/mg. For the same compound, in data set [2], the efflux ratio at 120 min, 5 μM turned out to be 1.5. The “Rat hepatocyte CLint” value in data set [3] is listed as 65.5 μl/min/10^−6 cells. Further, the pIC50 in data set [4] is 8.85.

In data set [1], `Cc1cc2ncnn2cc1Nc1ncc2c(C)nn(CCCC(F)(F)F)c2n1` [Example 58, 3-methyl-N-(7-methyl-[1,2,4]triazolo[1,5-a]pyridin-6-yl)-1-(4,4,4-trifluorobutyl)-1H-pyrazolo[3,4-d]pyrimidin-6-amine] displayed a microsomal CLint at 1 μM of 70.8 µL/min/mg. The efflux ratio at 120 min, 5 μM in data set [2] is 1.9. In data set [3], the “Rat hepatocyte CLint” value is 32.9 μl/min/10^−6 cells. In data set [4], this compound gave a pIC50 of 8.66.

For `Cc1cc2ncnn2cc1Nc1ncc2c(n1)c(C1CCC(F)(F)CC1)nn2C` [Example 9, 3-(4,4-difluorocyclohexyl)-1-methyl-N-(7-methyl-[1,2,4]triazolo[1,5-a]pyridin-6-yl)-1H-pyrazolo[4,3-d]pyrimidin-5-amine], the microsomal CLint at 1 μM in data set [1] was found to be 135 µL/min/mg. Also, the efflux ratio at 120 min, 5 μM in data set [2] came to 1.3. In addition, the “Rat hepatocyte CLint” value in data set [3] was 11.3 μl/min/10^−6 cells. This compound also gave a pIC50 in data set [4] of 9.15.

Compound `CO[C@H]1CC[C@@H](c2nn(C)c3cnc(Nc4cn5ncnc5cc4C)nc32)CC1` [Example 8, 3-((1s,4s)-4-methoxycyclohexyl)-1-methyl-N-(7-methyl-[1,2,4]triazolo[1,5-a]pyridin-6-yl)-1H-pyrazolo[4,3-d]pyrimidin-5-amine] registered a microsomal CLint at 1 μM in data set [1] of 234 µL/min/mg. The efflux ratio at 120 min, 5 μM in data set [2] turned out to be 1.7. In addition, the “Rat hepatocyte CLint” value in data set [3] is reported as 20.7 μl/min/10^−6 cells. Further, the pIC50 in data set [4] is 9.15.

`Cc1cc2ncnn2cc1Nc1ncc2c(n1)c([C@H]1CC[C@H](OC(F)F)CC1)nn2C` [Example 12, 3-((1r,4r)-4-(difluoromethoxy)cyclohexyl)-1-methyl-N-(7-methyl-[1,2,4]triazolo[1,5-a]pyridin-6-yl)-1H-pyrazolo[4,3-d]pyrimidin-5-amine]: the microsomal CLint at 1 μM in data set [1] amounted to 109 µL/min/mg. Further, the efflux ratio at 120 min, 5 μM in data set [2] came to 2.1. In data set [3], the “Rat hepatocyte CLint” value is 70.3 μl/min/10^−6 cells. For the same compound, the pIC50 in data set [4] is 8.96.

Consider `COCCn1nc(C)c2cnc(Nc3cn4ncnc4cc3C)nc21` [Example 63, 1-(2-methoxyethyl)-3-methyl-N-(7-methyl-[1,2,4]triazolo[1,5-a]pyridin-6-yl)-1H-pyrazolo[3,4-d]pyrimidin-6-amine], for which the intrinsic metabolic clearance (microsomal CLint) at 1 μM in data set [1] stood at 5.5 µL/min/mg. Also, the efflux ratio at 120 min, 5 μM in data set [2] was determined as 2.4. The “Rat hepatocyte CLint” value in data set [3] turned out to be 5.3 μl/min/10^−6 cells. In addition, the pIC50 in data set [4] was 7.44.

For `COCCCn1nc(C)c2cnc(Nc3cn4ncnc4cc3C)nc21` [Example 65, 1-(3-methoxypropyl)-3-methyl-N-(7-methyl-[1,2,4]triazolo[1,5-a]pyridin-6-yl)-1H-pyrazolo[3,4-d]pyrimidin-6-amine], the microsomal CLint at 1 μM in data set [1] stood at 17.1 µL/min/mg. Moreover, the efflux ratio at 120 min, 5 μM in data set [2] was found to be 2. In data set [3], the “Rat hepatocyte CLint” value came to 13.3 μl/min/10^−6 cells. The pIC50 in data set [4] is 8.10.

For `Cc1cc2ncnn2cc1Nc1ncc2c(C)nn(C3CCCOCC3)c2n1` (single isomer, unassigned) [Example 33, 3-methyl-N-(7-methyl-[1,2,4]triazolo[1,5-a]pyridin-6-yl)-1-(oxepan-4-yl)-1H-pyrazolo[3,4-d]pyrimidin-6-amine], in data set [1], the microsomal CLint at 1 μM was determined as 41.5 µL/min/mg. The efflux ratio at 120 min, 5 μM in data set [2] is 3. Besides, the “Rat hepatocyte CLint” value in data set [3] was determined as 11.3 μl/min/10^−6 cells. The same compound had a pIC50 in data set [4] of 8.82.

The compound `Cc1cc2ncnn2cc1Nc1ncc2c(n1)c(C(C)C)nn2C` [Example 4, 3-isopropyl-1-methyl-N-(7-methyl-[1,2,4]triazolo[1,5-a]pyridin-6-yl)-1H-pyrazolo[4,3-d]pyrimidin-5-amine] yielded a microsomal CLint at 1 μM in data set [1] of 47.3 µL/min/mg. The efflux ratio at 120 min, 5 μM in data set [2] was found to be 0.9. In data set [3], the “Rat hepatocyte CLint” value was 10.7 μl/min/10^−6 cells. The pIC50 in data set [4] is 8.80.

The compound `Cc1cc2ncnn2cc1Nc1ncc2c(C)nn([C@H]3CC[C@@H](O)CC3)c2n1` [Example 32, (1s,4s)-4-(3-methyl-6-((7-methyl-[1,2,4]triazolo[1,5-a]pyridin-6-yl)amino)-1H-pyrazolo[3,4-d]pyrimidin-1-yl)cyclohexan-1-ol] showed a microsomal CLint at 1 μM in data set [1] of 9.1 µL/min/mg. For the same compound, in data set [2], the efflux ratio at 120 min, 5 μM amounted to 9.4. Besides, in data set [3], the “Rat hepatocyte CLint” value stood at 11.5 μl/min/10^−6 cells. In data set [4], this compound gave a pIC50 of 8.72.

Compound `Cc1cc2ncnn2cc1Nc1ncc2c(C)nn(CCC#N)c2n1` [Example 72, 3-(3-methyl-6-((7-methyl-[1,2,4]triazolo[1,5-a]pyridin-6-yl)amino)-1H-pyrazolo[3,4-d]pyrimidin-1-yl)propanenitrile] registered a microsomal CLint at 1 μM in data set [1] of 5.9 µL/min/mg. Further, the efflux ratio at 120 min, 5 μM in data set [2] was found to be 7.5. The “Rat hepatocyte CLint” value in data set [3] came to 1.0 μl/min/10^−6 cells. Besides, the pIC50 in data set [4] was 8.74.

Regarding `Cc1cc2ncnn2cc1Nc1ncc2c(C)nn(CC3CCOC3)c2n1` (single isomer, unassigned) [Example 52, 3-methyl-N-(7-methyl-[1,2,4]triazolo[1,5-a]pyridin-6-yl)-1-((tetrahydrofuran-3-yl)methyl)-1H-pyrazolo[3,4-d]pyrimidin-6-amine], the microsomal CLint at 1 μM in data set [1] came out at 14.1 µL/min/mg. The efflux ratio at 120 min, 5 μM in data set [2] was 3.2. Moreover, the “Rat hepatocyte CLint” value in data set [3] is recorded as 4.9 μl/min/10^−6 cells. In data set [4], this compound gave a pIC50 of 7.97.

In data set [1], `COC1CCC(n2nc(C)c3cnc(Nc4cn5ncnc5cc4C)nc32)C1` (single isomer, unassigned) [Example 108, 1-(3-methoxycyclopentyl)-3-methyl-N-(7-methyl-[1,2,4]triazolo[1,5-a]pyridin-6-yl)-1H-pyrazolo[3,4-d]pyrimidin-6-amine] showed a microsomal CLint at 1 μM of 89 µL/min/mg. In data set [2], the efflux ratio at 120 min, 5 μM turned out to be 2. In data set [3], the “Rat hepatocyte CLint” value turned out to be 17.2 μl/min/10^−6 cells. Besides, in data set [4], the pIC50 is 8.72.
